For the assay, the target named is T1, NanR (Escherichia coli, UniProt P0A8W0).
T1 construct: crystals by in situ chymotrypsin proteolysis
T1 sequence (P0A8W0 1-263): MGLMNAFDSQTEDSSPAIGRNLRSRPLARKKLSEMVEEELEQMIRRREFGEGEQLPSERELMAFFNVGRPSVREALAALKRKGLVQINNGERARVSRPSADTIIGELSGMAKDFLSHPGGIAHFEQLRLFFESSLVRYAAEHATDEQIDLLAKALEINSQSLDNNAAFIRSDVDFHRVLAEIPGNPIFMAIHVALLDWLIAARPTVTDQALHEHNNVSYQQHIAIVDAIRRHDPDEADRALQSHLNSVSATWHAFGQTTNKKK
Put plainly: isothermal titration calorimetry. The following applies: 20 mM Tris-HCl pH 8.0, 150 mM NaCl; 8 °C; no DNA; Zn2+-loaded protein; effector-binding domain; allosteric.

pKd: −log10 of the molar value.

The term pKd denotes the Kd on a negative log10 scale, so that one unit is a factor of ten. `CC(=O)N[C@H]1[C@H]([C@H](O)[C@H](O)CO)OC(O)(C(=O)O)C[C@@H]1O` (stereo partly shown) [Neu5Ac] had a pKd of 4.80.

Values taken from article PMC8012715, “Mechanism of NanR gene repression and allosteric induction of bacterial sialic acid metabolism” (Nature Communications, 2021).
